Assay results reported in the NIST ThermoML archive (doi:10.1021/je200373q).

Experiment: xn = mol fraction of the nth substance listed
Details: 101 kPa, Liquid, Vibrating tube method

CCCCC [pentane] + CCCCCCCCC
mass density [kg/m3]
Details | x1 = 0.1034 | x1 = 0.205 | x1 = 0.3028 | x1 = 0.4006 | x1 = 0.5016 | x1 = 0.5988 | x1 = 0.6992 | x1 = 0.7993 | x1 = 0.8993
273.15 K | 727.17 | 721.15 | 714.81 | 707.86 | 700 | 691.84 | 682.27 | 672.39 | 659.26
278.15 K | 723.31 | 717.24 | 710.84 | 703.82 | 695.88 | 687.64 | 677.96 | 667.97 | 654.69
283.15 K | 719.43 | 713.31 | 706.84 | 699.75 | 691.73 | 683.4 | 673.62 | 663.51 | 650.07
288.15 K | 715.53 | 709.35 | 702.82 | 695.66 | 687.56 | 679.14 | 669.25 | 659.01 | 645.41
293.15 K | 711.62 | 705.38 | 698.79 | 691.54 | 683.36 | 674.84 | 664.84 | 654.47 | 640.71
298.15 K | 707.69 | 701.39 | 694.73 | 687.41 | 679.13 | 670.52 | 660.39 | 649.88 | 635.96
303.15 K | 703.75 | 697.38 | 690.65 | 683.24 | 674.87 | 666.16 | 655.91 | 645.26 | 631.15
308.15 K | 699.78 | 693.35 | 686.54 | 679.05 | 670.58 | 661.76 | 651.39 | 640.58 | 626.28
313.15 K | 695.79 | 689.3 | 682.41 | 674.83 | 666.26 | 657.33 | 646.82 | 635.85 | 621.36
318.15 K | 691.78 | 685.21 | 678.25 | 670.58 | 661.9 | 652.86 | 642.21 | 631.07 | 616.37
323.15 K | 687.74 | 681.1 | 674.06 | 666.29 | 657.51 | 648.34 | 637.54 | 626.24 | –
328.15 K | 683.68 | 676.97 | 669.83 | 661.97 | 653.07 | 643.78 | 632.82 | 621.34 | –
333.15 K | 679.6 | 672.8 | 665.58 | 657.61 | 648.6 | 639.17 | 628.05 | 616.38 | –
338.15 K | 675.48 | 668.6 | 661.28 | 653.21 | 644.08 | 634.51 | – | – | –
343.15 K | 671.34 | 664.37 | 656.96 | 648.78 | – | – | – | – | –
348.15 K | 667.16 | 660.1 | 652.59 | 644.3 | – | – | – | – | –
353.15 K | 662.95 | 655.79 | 648.19 | 639.79 | – | – | – | – | –
358.15 K | 658.7 | 651.45 | 643.74 | – | – | – | – | – | –
363.15 K | 654.42 | 647.07 | 639.25 | – | – | – | – | – | –
